Results as given in patent publication EP3723746B1, “PHENOXY ACIDS FOR THE TREATMENT OF NEUROMUSCULAR DISORDERS” (NMD Pharma A/S, priority 2017, dated 2019).

Tests used:
CIC-1 channels = target: T1, CIC-1 channels (Rattus norvegicus, UniProt P35524); experiment: Electrophysiological measurement of compound inhibition of CIC-1 in rat muscle (Gm, three micro-electrode technique, soleus muscle fibres); type: cell-based; settings: reduction of Gm in rat soleus muscle fibres, approx. 30°C; mean ± spread, n = number of experiments
T1 construct: from tissue; host or cells: whole soleus muscle of 12-14 week old Wistar rats
T1 sequence (P35524 1-994): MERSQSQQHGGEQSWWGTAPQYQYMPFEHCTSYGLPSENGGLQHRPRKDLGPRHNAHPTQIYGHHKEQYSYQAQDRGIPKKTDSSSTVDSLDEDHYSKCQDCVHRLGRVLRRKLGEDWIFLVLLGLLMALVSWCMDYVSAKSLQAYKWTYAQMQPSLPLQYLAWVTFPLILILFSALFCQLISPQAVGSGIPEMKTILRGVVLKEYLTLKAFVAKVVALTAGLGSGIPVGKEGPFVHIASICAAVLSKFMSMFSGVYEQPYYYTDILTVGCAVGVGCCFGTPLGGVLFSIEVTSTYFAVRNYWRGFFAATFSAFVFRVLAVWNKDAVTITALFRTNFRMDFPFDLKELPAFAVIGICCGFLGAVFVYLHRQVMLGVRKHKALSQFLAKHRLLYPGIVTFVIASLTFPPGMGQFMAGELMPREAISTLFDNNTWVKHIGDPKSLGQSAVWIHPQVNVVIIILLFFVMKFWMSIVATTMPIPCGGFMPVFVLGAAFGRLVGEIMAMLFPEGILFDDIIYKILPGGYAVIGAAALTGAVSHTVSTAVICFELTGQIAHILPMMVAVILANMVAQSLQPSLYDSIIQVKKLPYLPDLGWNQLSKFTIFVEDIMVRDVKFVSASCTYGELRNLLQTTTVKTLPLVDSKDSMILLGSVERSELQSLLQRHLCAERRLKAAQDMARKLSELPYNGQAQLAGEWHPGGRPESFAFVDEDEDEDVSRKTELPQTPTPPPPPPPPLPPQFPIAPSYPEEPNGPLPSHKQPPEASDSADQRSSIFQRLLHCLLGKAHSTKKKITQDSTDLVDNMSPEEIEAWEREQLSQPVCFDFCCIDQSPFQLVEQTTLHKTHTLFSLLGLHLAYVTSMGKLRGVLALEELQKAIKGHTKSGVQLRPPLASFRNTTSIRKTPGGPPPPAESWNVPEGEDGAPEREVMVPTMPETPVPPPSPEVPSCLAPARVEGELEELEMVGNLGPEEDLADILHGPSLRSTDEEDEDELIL
Excerpt: Table 2: Inhibition of CIC-1 ion channel using compounds of the invention

Lewis rats = experiment: Measurement of in situ muscle contractile characteristics (isometric hindlimb force under cisatracurium block); type: in vivo; settings: 40 mg/kg i.v., cisatracurium infusion, 3 experiments
Protocol: Isometric hindlimb force was measured in 12-week old female Lewis rats in the presence and absence of compound.
Rats were placed under anesthesia with isoflurane (2-4%), intubated and subsequently connected to a micro ventilator (Microvent 1, Hallowell EMC, US). Two stimulation electrodes were inserted through the skin to stimulate the sciatic nerve. A small incision was made proximal to the ankle, to expose the Achilles tendon, which was tied by cotton string, and connected to a force transducer (Fort250, World Precision Instruments) with adjustable position (Vernier control). The Achilles tendon was then cut distal to the attached cotton string. The rat was placed on a heated pad, and to prevent movement artefacts from contraction of the ankle dorsiflexors, the foot was fixated by tape on a footplate.
Muscle contractile properties were assessed by applying an electrical current (under supramaximal voltage conditions) to the nerve and recording the force generated by the muscle. The muscle was stretched until maximal force was obtained, when assessed by 2 Hz stimulation. Isometric force was measured every 30 seconds at 12 Hz (Twitch), 10 pulses, and at every 5 minutes at 80 Hz (Tetanic) for 1 second (80 pulses). This stimulation pattern was employed throughout the experiment, expect in few cases where 80 Hz stimulation was replaced by 12 Hz (10 pulses). […] When the level of neuromuscular inhibition was stable, the test article was injected i.v. at the chosen concentration. The effect of test article was assessed on its ability to increase force generated from the stimulation pattern applied. The effect was assessed in the ability to increase force per se (tetanic, 80 Hz, stimulation), and the ratio between individual twitch peaks (12 Hz stimulation). The effect was monitored for at least 1 hour after injection of test article. In addition, the time from injection of test article to maximal effect on force (both twitch and tetanic) was noted and the time for the effect to disappear (return to baseline), if possible. When appropriate the infusion of neuromuscular blocking agent was ceased, with the stimulation pattern continued, and the return of force to control levels was monitored. Animals were sacrificed by cervical dislocation while still fully sedated.

SMILES: C#Cc1cc(Br)ccc1O[C@@H](C)C(=O)O [Compound A-19, (2S)-2-(4-bromo-2-ethynylphenoxy)propanoic acid]
- EC50 (CIC-1 channels): 3.5 ± 0.6 µM
- average increase in twitch peaks (Lewis rats; 12 Hz stimulation): 9.6%
- average increase in tetanic force (Lewis rats; 80 Hz stimulation): 44.5%
